Where “and” joins values, the source holds several entries; their conditions need not be identical. Identical values can stand only once. Inconclusive results and toxic doses are left out. How the source made its calls: active means survival T/C of 150% or more; inactive means T/C below 125% in these data.
Test system: CD2F1 mice, L1210 leukemia ip, survival T/C
Assay: NCI In Vivo Anticancer Drug Screen. Data for tumor model L1210 Leukemia (intraperitoneal) in CD2F1 (CDF1) mice
Conditions: higher = longer survival
Summary of the method: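 Transplantable tumor in mice; compound-treated vs vehicle-treated groups. Read-out = treated/control ratio of the measured endpoint.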

[1] = endpoint: mean survival time, dose: 100.0 mg/kg/injection, schedule: Q01DX001 (ip), vehicle: saline with Tween-80
[2] = endpoint: mean survival time, dose: 200.0 mg/kg/injection, schedule: Q01DX001 (ip), vehicle: saline with Tween-80
[3] = endpoint: mean survival time, dose: 400.0 mg/kg/injection, schedule: Q01DX001 (ip), vehicle: saline with Tween-80
[4] = endpoint: mean survival time, dose: 100.0 mg/kg/injection, schedule: Q04DX003 (ip), vehicle: Klucel (hydroxypropylcellulose) (HPC)
[5] = endpoint: mean survival time, dose: 200.0 mg/kg/injection, schedule: Q04DX003 (ip), vehicle: Klucel (hydroxypropylcellulose) (HPC)
[6] = endpoint: mean survival time, dose: 400.0 mg/kg/injection, schedule: Q04DX003 (ip), vehicle: Klucel (hydroxypropylcellulose) (HPC)
[7] = endpoint: mean survival time, dose: 50.0 mg/kg/injection, schedule: Q04DX002 (ip), vehicle: saline with Tween-80
[8] = endpoint: mean survival time, dose: 100.0 mg/kg/injection, schedule: Q01DX009 (ip), vehicle: saline with Tween-80
[9] = endpoint: mean survival time, dose: 400.0 mg/kg/injection, schedule: Q04DX002 (ip), vehicle: saline with Tween-80
[10] = endpoint: mean survival time, dose: 100.0 mg/kg/injection, schedule: Q04DX002 (ip), vehicle: saline with Tween-80
[11] = endpoint: mean survival time, dose: 100.0 mg/kg/injection, schedule: Q04DX003 (ip), vehicle: saline with Tween-80
[12] = endpoint: mean survival time, dose: 200.0 mg/kg/injection, schedule: Q04DX003 (ip), vehicle: saline with Tween-80

Measured: T/C

Cc1ccc(NC(=O)Nc2cccc(NC(=O)COc3ccc(Cl)cc3C(=O)O)c2)cc1S(=O)(=O)F
inactive: [1] 88 % of control | [2] 86 % of control | [3] 89 % of control

CCOC(=O)CNC(=O)c1ccc(N(CCCl)CCCl)cc1
inactive: [4] 95 % of control | [5] 96 % of control | [6] 104 % of control

CCOS(=O)(=O)CCCCS(=O)(=O)OCC
inactive: endpoint: mean survival time, dose: 10.0 mg/kg/injection, schedule: Q01DX009 (ip), vehicle: Klucel (hydroxypropylcellulose) (HPC) 104 % of control | endpoint: mean survival time, dose: 20.0 mg/kg/injection, schedule: Q01DX009 (ip), vehicle: Klucel (hydroxypropylcellulose) (HPC) 98 % of control | endpoint: mean survival time, dose: 40.0 mg/kg/injection, schedule: Q01DX009 (ip), vehicle: Klucel (hydroxypropylcellulose) (HPC) 107 % of control

CC(=O)Nc1cscc1NC(C)=O
inactive: endpoint: median survival time, dose: 12.5 mg/kg/injection, schedule: Q01DX009 (ip), vehicle: saline with Tween-80 100 % of control | endpoint: median survival time, dose: 25.0 mg/kg/injection, schedule: Q01DX009 (ip), vehicle: saline with Tween-80 105 % of control and 111 % of control | endpoint: median survival time, dose: 50.0 mg/kg/injection, schedule: Q01DX009 (ip), vehicle: saline with Tween-80 91 % of control and 103 % of control | endpoint: median survival time, dose: 100.0 mg/kg/injection, schedule: Q01DX009 (ip), vehicle: saline with Tween-80 100 % of control and 101 % of control | endpoint: median survival time, dose: 200.0 mg/kg/injection, schedule: Q01DX009 (ip), vehicle: saline with Tween-80 102 % of control and 103 % of control | endpoint: median survival time, dose: 400.0 mg/kg/injection, schedule: Q01DX009 (ip), vehicle: saline with Tween-80 103 % of control and 108 % of control

CCOC(=O)c1ccc(NC(=O)Nc2cc(Cl)c(Cl)cc2C)cc1
inactive: endpoint: mean survival time, dose: 3.13 mg/kg/injection, schedule: Q01DX001 (ip), vehicle: saline with Tween-80 93 % of control | endpoint: mean survival time, dose: 3.13 mg/kg/injection, schedule: Q04DX003 (ip), vehicle: saline with Tween-80 90 % of control | endpoint: mean survival time, dose: 6.25 mg/kg/injection, schedule: Q01DX001 (ip), vehicle: saline with Tween-80 92 % of control | endpoint: mean survival time, dose: 6.25 mg/kg/injection, schedule: Q01DX009 (ip), vehicle: saline with Tween-80 86 % of control and 89 % of control | endpoint: mean survival time, dose: 6.25 mg/kg/injection, schedule: Q04DX002 (ip), vehicle: saline with Tween-80 91 % of control and 97 % of control | endpoint: mean survival time, dose: 6.25 mg/kg/injection, schedule: Q04DX003 (ip), vehicle: saline with Tween-80 89 % of control | endpoint: mean survival time, dose: 12.5 mg/kg/injection, schedule: Q01DX001 (ip), vehicle: saline with Tween-80 93 % of control | endpoint: mean survival time, dose: 12.5 mg/kg/injection, schedule: Q01DX009 (ip), vehicle: saline with Tween-80 86 % of control | endpoint: mean survival time, dose: 12.5 mg/kg/injection, schedule: Q04DX002 (ip), vehicle: saline with Tween-80 91 % of control | endpoint: mean survival time, dose: 25.0 mg/kg/injection, schedule: Q04DX003 (ip), vehicle: saline with Tween-80 90 % of control | [7] 91 % of control | [8] 88 % of control | [9] 88 % of control

OCCSc1c(Cl)c(Cl)c(Cl)c(Cl)c1Cl
inactive: endpoint: mean survival time, dose: 25.0 mg/kg/injection, schedule: Q04DX002 (ip), vehicle: saline with Tween-80 98 % of control | [7] 95 % of control | [10] 115 % of control | [9] 90 % of control

CCCCNc1c(C(=O)N2CCCCC2)cnc2c1cnn2CC
inactive: endpoint: mean survival time, dose: 100.0 mg/kg/injection, schedule: Q04DX003 (ip), vehicle: saline 97 % of control | endpoint: mean survival time, dose: 200.0 mg/kg/injection, schedule: Q04DX003 (ip), vehicle: saline 101 % of control

O=C1c2ccccc2C(=O)N1CCS(=O)(=O)Cl
inactive: endpoint: mean survival time, dose: 50.0 mg/kg/injection, schedule: Q01DX001 (ip), vehicle: saline with Tween-80 100 % of control | endpoint: mean survival time, dose: 50.0 mg/kg/injection, schedule: Q01DX009 (ip), vehicle: saline with Tween-80 95 % of control and 101 % of control | [7] 97 % of control and 108 % of control | endpoint: mean survival time, dose: 50.0 mg/kg/injection, schedule: Q04DX003 (ip), vehicle: saline with Tween-80 98 % of control | [1] 97 % of control | [8] 96 % of control and 101 % of control | [10] 96 % of control and 100 % of control | [11] 98 % of control | [2] 98 % of control | endpoint: mean survival time, dose: 200.0 mg/kg/injection, schedule: Q01DX009 (ip), vehicle: saline with Tween-80 93 % of control | endpoint: mean survival time, dose: 200.0 mg/kg/injection, schedule: Q04DX002 (ip), vehicle: saline with Tween-80 100 % of control and 101 % of control | [12] 101 % of control

NC(CSSc1ccccc1)=NC1CCCCC1
inactive: endpoint: mean survival time, dose: 12.5 mg/kg/injection, schedule: Q01DX001 (ip), vehicle: Klucel (hydroxypropylcellulose) (HPC) 97 % of control | endpoint: mean survival time, dose: 25.0 mg/kg/injection, schedule: Q01DX001 (ip), vehicle: Klucel (hydroxypropylcellulose) (HPC) 92 % of control | endpoint: mean survival time, dose: 50.0 mg/kg/injection, schedule: Q01DX001 (ip), vehicle: Klucel (hydroxypropylcellulose) (HPC) 97 % of control

COC(=O)C(N)Cc1ccc(OC(c2ccccc2)(c2ccccc2)c2ccccc2)cc1 (stereo not given)
inactive: endpoint: mean survival time, dose: 50.0 mg/kg/injection, schedule: Q01DX009 (ip), vehicle: saline 100 % of control | endpoint: mean survival time, dose: 100.0 mg/kg/injection, schedule: Q01DX009 (ip), vehicle: saline 92 % of control | endpoint: mean survival time, dose: 200.0 mg/kg/injection, schedule: Q01DX009 (ip), vehicle: saline 94 % of control | endpoint: mean survival time, dose: 400.0 mg/kg/injection, schedule: Q01DX009 (ip), vehicle: saline 94 % of control

O=C(Nc1nccs1)c1ccc([N+](=O)[O-])cc1
inactive: [1] 95 % of control | [2] 88 % of control | [3] 100 % of control

C/C=C(/Cl)C(=O)O
inactive: [1] 100 % of control | [2] 101 % of control

CCN1CCCSC1=S
inactive: endpoint: mean survival time, dose: 75.0 mg/kg/injection, schedule: Q01DX001 (ip), vehicle: other 98 % of control | endpoint: mean survival time, dose: 150.0 mg/kg/injection, schedule: Q01DX001 (ip), vehicle: other 103 % of control

COC1OC(COC(c2ccccc2)(c2ccccc2)c2ccccc2)C(OC)C(OC)C1NC(C)=O (stereo not given)
inactive: endpoint: mean survival time, dose: 100.0 mg/kg/injection, schedule: Q01DX001 (ip), vehicle: Klucel (hydroxypropylcellulose) (HPC) 91 % of control | endpoint: mean survival time, dose: 200.0 mg/kg/injection, schedule: Q01DX001 (ip), vehicle: Klucel (hydroxypropylcellulose) (HPC) 96 % of control | endpoint: mean survival time, dose: 400.0 mg/kg/injection, schedule: Q01DX001 (ip), vehicle: Klucel (hydroxypropylcellulose) (HPC) 96 % of control

COC(=O)/C=C/CNC(C)C
inactive: endpoint: mean survival time, dose: 12.5 mg/kg/injection, schedule: Q01DX009 (ip), vehicle: water 93 % of control | endpoint: mean survival time, dose: 25.0 mg/kg/injection, schedule: Q01DX009 (ip), vehicle: water 95 % of control | endpoint: mean survival time, dose: 50.0 mg/kg/injection, schedule: Q01DX009 (ip), vehicle: water 96 % of control | endpoint: mean survival time, dose: 100.0 mg/kg/injection, schedule: Q01DX009 (ip), vehicle: water 96 % of control | endpoint: mean survival time, dose: 200.0 mg/kg/injection, schedule: Q01DX009 (ip), vehicle: water 101 % of control

O=c1c2ccc(Cl)cc2[nH]c(=S)n1-c1ccc(Cl)cc1
inactive: [11] 104 % of control | [12] 93 % of control | endpoint: mean survival time, dose: 400.0 mg/kg/injection, schedule: Q04DX003 (ip), vehicle: saline with Tween-80 102 % of control

Cc1cc(/C=C/c2ccc3cc(N(C)C)ccc3[n+]2C)c(C)n1-c1ccccc1
inactive: endpoint: mean survival time, dose: 0.1 mg/kg/injection, schedule: Q01DX009 (ip), vehicle: saline with Tween-80 95 % of control | endpoint: mean survival time, dose: 0.2 mg/kg/injection, schedule: Q01DX009 (ip), vehicle: saline with Tween-80 95 % of control | endpoint: mean survival time, dose: 0.39 mg/kg/injection, schedule: Q01DX009 (ip), vehicle: saline with Tween-80 98 % of control | endpoint: mean survival time, dose: 0.78 mg/kg/injection, schedule: Q01DX009 (ip), vehicle: saline with Tween-80 101 % of control

Cc1cc(SCSc2cc(C)[o+]c(C)c2)cc(C)[o+]1
inactive: [4] 100 % of control | [5] 104 % of control | [6] 102 % of control

OC12Cc3ccccc3C1=NN(c1ccccc1)C2c1ccccc1 (stereo not given)
inactive: [8] 91 % of control | endpoint: mean survival time, dose: 400.0 mg/kg/injection, schedule: Q01DX009 (ip), vehicle: saline with Tween-80 86 % of control

Cc1cccc(C(=O)NN)c1
inactive: endpoint: mean survival time, dose: 75.0 mg/kg/injection, schedule: Q01DX001 (ip), vehicle: saline 106 % of control

OCC1OC(n2cnc3cc4ccccc4cc32)C(O)C1O (stereo not given)
inactive: endpoint: median survival time, dose: 13.25 mg/kg/injection, schedule: Q01DX005 (ip), vehicle: saline with Tween-80 100 % of control | endpoint: median survival time, dose: 26.5 mg/kg/injection, schedule: Q01DX005 (ip), vehicle: saline with Tween-80 98 % of control | endpoint: median survival time, dose: 53.0 mg/kg/injection, schedule: Q01DX005 (ip), vehicle: saline with Tween-80 88 % of control | endpoint: median survival time, dose: 106.0 mg/kg/injection, schedule: Q01DX005 (ip), vehicle: saline with Tween-80 91 % of control

Reference: PubChem BioAssay AID256 (DTP/NCI, 2004)
